Values after ≈ are worked out from the molar mass of the structure shown. Like-named read-outs stand apart in the source and are kept apart here. Where only a bound is given, the exact number is not on record here.

These results are taken from publication PMC6268357, “Synthesis and Biological Evaluation of New Ligustrazine Derivatives as Anti-Tumor Agents” (Molecules, 2012).

Test [1] has as its system Bel-7402 human cancer cell line. As to the kind of experiment: MTT anti-proliferation assay, Bel-7402. In kind it is cell-based. The settings on record: for IC50: Homo sapiens, read-out: IC50 Bel 7402. The procedure: (§1) The cytotoxicities of these compounds were tested on five cancer cell lines by the standard MTT assay. […] The growing tumor cells at a density 10^4 cells/mL were exposed to various concentrations of the tested drugs and incubated in a 96-well microtiter plate for 96 h (37 °C, 5% CO2). After MTT solution (20 μL, 5 mg/mL) was added to each well, the plate was incubated for a further 4 h. Then the media was removed. Formazan crystals were dissolved with DMSO (150 μL). After mixing well, the absorbance was quantified at 570 nm with a BIORAD 550 spectrophotometer. Wells containing no drugs were used as blanks. […] Tumor cell growth inhibitory rate was calculated in the following equation (1): [drawing 3] (1)
On the technique in general: Formazan colour is commonly taken as a measure of viable cells.

In test [2] the test system is A-549 human cancer cell line. Put plainly: MTT anti-proliferation assay, A549. In kind it is cell-based. The settings on record: for IC50: Homo sapiens, read-out: IC50 A549. How it is done: as §1
The subject of test [3] is HCT-8 human cancer cell line. As to the kind of experiment: MTT anti-proliferation assay, HCT-8. The test is classed as cell-based. The settings on record: for IC50: Homo sapiens, read-out: IC50 HCT-8. How it is done: as §1
Test [4] has as its system BGC-823 human cancer cell line. As to the kind of experiment: MTT anti-proliferation assay, BGC-823. In kind it is cell-based. The settings on record: for IC50: Homo sapiens, read-out: IC50 BGC-823. How it is done:
as §1

Test [5] deals with A2780 human cancer cell line. As to the kind of experiment: MTT anti-proliferation assay, A2780. To be noted: for IC50: Homo sapiens, read-out: IC50 A2780. The test is classed as cell-based. The procedure: as §1
Test [6] has as its system chick chorioallantoic membrane (CAM). Put plainly: Chick chorioallantoic membrane (CAM) angiogenesis assay. In kind it is in vivo, White Leghorn chicken. To be noted: for Number of microvessels on CAM, treatment (mean ± s): n = 6, implanted day 7, read day 11, microvessels 1 to 100 μm in diameter. How it is done:
Fertilized White Leghorn chicken eggs, provided by the Chinese Academy of Agricultural Sciences, were placed in an incubator as soon as embryogenesis started and were kept under constant humidity of 65% at 37 °C. On day 7, a square window was opened on the shell and physiological saline (0.1 mL) was injected in to detach the shell membrane. Then gelatin sponges carrying the TMP stimulator derivatives at 10 μg/egg and 40 μg/egg were implanted, respectively. The control group was treated with physiological saline. The windows were sealed with medical adhesive tape and the incubation went on till the experiment day. The above steps were performed under sterile conditions. On the 11th day, the tapes were removed and the entire CAM was detached after tissue fixation with methanol/acetone (1:1, v/v). Then we used computer-assisted image tracking to obtain absolute values for the number of microvessels which were 1 to 100 μm in diameter. Data were analyzed using the t-test option of the of Statistics Analysis System, the values were expressed as mean ± s of 6 observations and P < 0.05 was considered significant.

Where [7] appears, read: MTT, 96 h exposure, maximal tested concentration 10.0 ig/mL.
Where [8] appears, read: Bel-7402, MTT, 96 h exposure, maximal tested concentration 10.0 ig/mL.
Setting [9] is: A549, MTT, 96 h exposure, maximal tested concentration 10.0 ig/mL.
Where [10] appears, read: HCT-8, MTT, 96 h exposure, maximal tested concentration 10.0 ig/mL.
[11] abbreviates: BGC-823, MTT, 96 h exposure, maximal tested concentration 10.0 ig/mL.
[12] abbreviates: A2780, MTT, 96 h exposure, maximal tested concentration 10.0 ig/mL.

For the compound `C=C(CCC(C(=O)O)[C@H]1[C@H](O)C[C@@]2(C)C3=CC[C@H]4C(C)(C)[C@@H](OC(C)=O)CC[C@]4(C)C3=CC[C@]12C)C(C)C` (some centres unmarked) [DPA, dehydropachymic acid], the “IC50 Bel 7402” value in test [1] (setting [7]) was “— ^a (IC50 > 10.0 ig/mL)”. Besides, the “IC50 A549” value in test [2] (setting [7]) is “— (IC50 > 10.0 ig/mL)”. Further, the “IC50 HCT-8” value in test [3] (setting [7]) was “— (IC50 > 10.0 ig/mL)”. The “IC50 BGC-823” value in test [4] (setting [7]) is listed as “— (IC50 > 10.0 ig/mL)”. The “IC50 A2780” value in test [5] (setting [7]) is given as “— (IC50 > 10.0 ig/mL)”.
“1,7-bis(4-(3,5,6-Trimethylpyrazin-2-yl)-3-methoxyphenyl)-1,6-heptadiene-3,5-dione [Compound 4]”: the “IC50 Bel 7402” value in test [1] (setting [7]) came out at 6.391 µg/mL. The “IC50 A549” value in test [2] (setting [7]) came to 5.890 µg/mL. Also, the “IC50 HCT-8” value in test [3] (setting [7]) was 7.106 µg/mL. The “IC50 BGC-823” value in test [4] (setting [7]) is 5.472 µg/mL. For the same compound, the “IC50 A2780” value in test [5] (setting [7]) was 5.540 µg/mL. Also, the “Number of microvessels on CAM, treatment (mean ± s)” value (from here on “Number of microvessels on CAM”) stood at 3.8 ± 2.79 in test [6] (dose 10 μg/egg) and 1.4 ± 1.22 in test [6] (dose 40 μg/egg). In test [6] (doses of 10 μg/egg and 40 μg/egg), the “Anti-angiogenesis effect on CAM (in words)” value is given as “dramatically block the growth of new vessels”.
Regarding `C=C(CC[C@@H](C(=O)O)[C@H]1[C@H](O)C[C@@]2(C)C3=C(CC[C@]12C)[C@@]1(C)CC[C@H](OC(C)=O)C(C)(C)[C@@H]1CC3)C(C)C` [PA, pachymic acid], the IC50 in test [1] (setting [8]), in test [2] (setting [9]), in test [3] (setting [10]), in test [4] (setting [11]) and in test [5] (setting [12]) was greater than 10 µg/mL each time.
Regarding `C=C(CCC(C(=O)OCc1nc(C)c(C)nc1C)C1[C@H](O)C[C@@]2(C)C3=C(CCC12C)C1(C)CCC(OC(C)=O)C(C)(C)C1CC3)C(C)C` (stereo partly drawn) [Compound 8, 3β-Acetoxy-16α-hydroxy-lanosta-8,24(31)-diene-21-oic acid-3,5,6-trimethylpyrazin-2-methyl ester], the IC50 in test [1] (setting [8]), in test [2] (setting [9]), in test [3] (setting [10]), in test [4] (setting [11]) and in test [5] (setting [12]) was greater than 10 µg/mL throughout. The results for the “Number of microvessels on CAM” value in test [6] (dose 10 μg/egg) and in test [6] (dose 40 μg/egg) were 9.7 ± 3.98 and 10.8 ± 5.12, respectively.
Regarding `COc1cc(/C=C/C(=O)CC(=O)/C=C/c2ccc(O)c(OC)c2)ccc1O` [CU, curcumin], the IC50 – broadly, the concentration that gives 50% inhibition – is 6.5 µg/mL (≈ 17.6 µM) in test [1] (setting [8]); 6.52 µg/mL (≈ 17.7 µM) in test [2] (setting [9]); 6.28 µg/mL (≈ 17 µM) in test [3] (setting [10]); 6.81 µg/mL (≈ 18.5 µM) in test [4] (setting [11]); 6.52 µg/mL (≈ 17.7 µM) in test [5] (setting [12]).
In the case of `Cc1nc(C)c(COC(=O)/C=C/c2ccccc2)nc1C` [Compound 11, 3-Phenyl-2-propenoic acid-3,5,6-trimethylpyrazin-2-methyl ester], the IC50 was 9.4 µg/mL (≈ 33.3 µM) in test [1] (setting [8]); 7.83 µg/mL (≈ 27.7 µM) in test [2] (setting [9]); greater than 10 µg/mL in test [3] (setting [10]); greater than 10 µg/mL in test [4] (setting [11]); greater than 10 µg/mL in test [5] (setting [12]). Moreover, the “Number of microvessels on CAM” value is given as 10.3 ± 2.73 in test [6] (dose 10 μg/egg) and 7.0 ± 3.03 in test [6] (dose 40 μg/egg).
In the case of `Cc1nc(C)c(C)nc1C` [TMP, ligustrazine], the IC50 in test [1] (setting [8]), in test [2] (setting [9]), in test [3] (setting [10]), in test [4] (setting [11]) and in test [5] (setting [12]) was greater than 10 µg/mL in each case.
On to `Cc1nc(C)c(COC(=O)C23CCC(C)(C)CC2C2=CCC4C5(C)CCC(O)C(C)(C)C5CCC4(C)[C@]2(C)CC3)nc1C` (stereo partly drawn) [Compound 7, 3β-Hydroxyolea-12-en-28-oic acid-3,5,6-trimethylpyrazin-2-methyl ester], for which the IC50 in test [1] (setting [8]) was 7.61 µg/mL (≈ 12.9 µM); in test [2] (setting [9]) it was greater than 10 µg/mL; in test [3] (setting [10]), 9.27 µg/mL (≈ 15.7 µM); in test [4] (setting [11]), greater than 10 µg/mL; in test [5] (setting [12]), greater than 10 µg/mL. In addition, the “Number of microvessels on CAM” value in test [6] (dose 10 μg/egg) is given as 12.0 ± 2.90; in test [6] (dose 40 μg/egg) it was 9.5 ± 4.55.
For the compound `Cc1nc(C)c(COC(=O)[C@@]2(C)CCC3(C)CC[C@]4(C)C(=CC(=O)C5C6(C)CCC(O)C(C)(C)C6CCC54C)C3C2)nc1C` (stereo partly drawn) [Compound 10, (3β,18α,20β)-3-Hydroxy-11-oxoolean-12-en-29-oicacid-3,5,6-trimethylpyrazin-2-methyl ester], the half-inhibitory concentration (IC50) in test [1] (setting [8]), in test [2] (setting [9]), in test [3] (setting [10]), in test [4] (setting [11]) and in test [5] (setting [12]) was greater than 10 µg/mL throughout. Further, the “Number of microvessels on CAM” value worked out at 9.5 ± 1.76 in test [6] (dose 10 μg/egg) and 9.8 ± 2.14 in test [6] (dose 40 μg/egg).
With `O=C(O)/C=C/c1ccccc1` [CIA, cinnamic acid], the IC50 in test [1] (setting [8]), in test [2] (setting [9]), in test [3] (setting [10]), in test [4] (setting [11]) and in test [5] (setting [12]) was greater than 10 µg/mL each time.
For the compound `Cc1nc(C)c(COC(=O)CC[C@@H](C)C2CCC3C4C(C[C@H](O)C32C)C2(C)CC[C@@H](O)CC2C[C@H]4O)nc1C` (stereo partly drawn) [Compound 6, 3α,7α,12α-Trihydroxy-5β-cholanic acid-3,5,6-trimethylpyrazin-2-methyl ester], the IC50 in test [1] (setting [8]), in test [2] (setting [9]), in test [3] (setting [10]), in test [4] (setting [11]) and in test [5] (setting [12]) was greater than 10 µg/mL throughout. Further, the entries for the “Number of microvessels on CAM” value in test [6] (dose 10 μg/egg) and in test [6] (dose 40 μg/egg) were 6.2 ± 2.40 and 5.7 ± 2.07, respectively.
With `C=C(CCC(C(=O)OCc1nc(C)c(C)nc1C)C1[C@H](O)C[C@@]2(C)C3=CCC4C(C)(CCC(OC(C)=O)C4(C)C)C3=CCC12C)C(C)C` (stereo partly drawn) [Compound 9, 3β-Acetoxy-16α-hydroxy-lanosta-7,9(11),24(31)-trien-21-oic acid-3,5,6-trimethylpyrazin-2-methyl ester], the IC50 was greater than 10 µg/mL in test [1] (setting [8]); 8.77 µg/mL (≈ 13.3 µM) in test [2] (setting [9]); greater than 10 µg/mL in test [3] (setting [10]); greater than 10 µg/mL in test [4] (setting [11]); greater than 10 µg/mL in test [5] (setting [12]). For the same compound, the results for the “Number of microvessels on CAM” value in test [6] (dose 10 μg/egg) and in test [6] (dose 40 μg/egg) were 7.7 ± 2.16 and 5.7 ± 1.21, respectively.
With `CC1(C)[C@@H](O)CC[C@]2(C)[C@H]3C(=O)C=C4[C@@H]5C[C@@](C)(C(=O)O)CC[C@]5(C)CC[C@@]4(C)[C@]3(C)CC[C@@H]12` [GA, glycyrrhetinic acid], the IC50 in test [1] (setting [8]), in test [2] (setting [9]), in test [3] (setting [10]), in test [4] (setting [11]) and in test [5] (setting [12]) was greater than 10 µg/mL throughout.
In the case of `CC1(C)CC[C@]2(C(=O)O)CC[C@]3(C)C(=CC[C@@H]4[C@@]5(C)CC[C@H](O)C(C)(C)[C@@H]5CC[C@]43C)[C@@H]2C1` [OA, oleanolic acid], the IC50 in test [1] (setting [8]), in test [2] (setting [9]), in test [3] (setting [10]), in test [4] (setting [11]) and in test [5] (setting [12]) was greater than 10 µg/mL throughout.
On to `C[C@H](CCC(=O)O)[C@H]1CC[C@H]2[C@@H]3CC[C@@H]4C[C@H](O)CC[C@]4(C)[C@H]3C[C@H](O)[C@]12C` [DA, deoxycholic acid], for which the IC50 in test [1] (setting [8]), in test [2] (setting [9]), in test [3] (setting [10]), in test [4] (setting [11]) and in test [5] (setting [12]) was greater than 10 µg/mL each time.
Take `C[C@H](CCC(=O)O)[C@H]1CC[C@H]2[C@@H]3[C@H](O)C[C@@H]4C[C@H](O)CC[C@]4(C)[C@H]3C[C@H](O)[C@]12C` [CA, cholic acid]: the IC50 in test [1] (Bel-7402, 96 h) was greater than 10 µg/mL; in test [2] (A549, 96 h), greater than 10 µg/mL; in test [3] (HCT-8, 96 h), greater than 10 µg/mL; in test [4] (BGC-823, 96 h), greater than 10 µg/mL; in test [5] (A2780, 96 h), greater than 10 µg/mL.
